These results are taken from ChEMBL document CHEMBL1806377, “Synthesis and evaluation of a radioiodinated trisaccharide derivative as a synthetic substrate for a sensitive N-acetylglucosaminyltransferase V radioassay” (Bioorg Med Chem, 2011).

Holding throughout (conditions): tested as the 125I-labelled form
Assay [1] concerns the target T1, Alpha-1,6-mannosylglycoprotein 6-beta-N-acetylglucosaminyltransferase A (Rattus norvegicus) (UniProt Q08834).
T1 sequence (whole entry): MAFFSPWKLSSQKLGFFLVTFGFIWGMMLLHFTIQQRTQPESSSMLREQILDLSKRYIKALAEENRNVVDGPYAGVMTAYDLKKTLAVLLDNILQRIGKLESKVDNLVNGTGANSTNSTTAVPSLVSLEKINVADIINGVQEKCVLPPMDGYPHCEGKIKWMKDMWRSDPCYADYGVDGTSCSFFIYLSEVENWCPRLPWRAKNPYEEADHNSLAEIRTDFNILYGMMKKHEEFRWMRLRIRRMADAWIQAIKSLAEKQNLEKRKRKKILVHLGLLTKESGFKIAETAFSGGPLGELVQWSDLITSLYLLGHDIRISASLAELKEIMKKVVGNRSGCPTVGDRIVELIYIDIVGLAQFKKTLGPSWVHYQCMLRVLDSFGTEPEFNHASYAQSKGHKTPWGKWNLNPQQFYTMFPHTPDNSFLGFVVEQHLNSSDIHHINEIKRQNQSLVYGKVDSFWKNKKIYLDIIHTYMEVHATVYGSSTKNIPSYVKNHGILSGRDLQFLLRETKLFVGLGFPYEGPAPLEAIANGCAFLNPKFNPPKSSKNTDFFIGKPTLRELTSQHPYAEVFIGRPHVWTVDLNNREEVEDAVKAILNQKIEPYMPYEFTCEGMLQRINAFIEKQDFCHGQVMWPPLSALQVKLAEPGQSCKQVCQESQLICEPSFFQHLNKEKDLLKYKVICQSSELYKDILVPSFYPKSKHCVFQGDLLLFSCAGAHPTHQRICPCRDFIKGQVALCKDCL
The experiment in a line: Activity at Wistar rat spleen GnT-V assessed per mg of protein after 4 hrs by radio HPLC analysis.

The target in assay [2] is T1, Alpha-1,6-mannosylglycoprotein 6-beta-N-acetylglucosaminyltransferase A (Rattus norvegicus). As to the kind of experiment: Activity at Wistar rat heart GnT-V assessed per mg of protein after 4 hrs by radio HPLC analysis.
Assay [3] shares this target. As to the kind of experiment: Activity at Wistar rat lung GnT-V assessed per mg of protein after 4 hrs by radio HPLC analysis.
Assay [4] has the same target. The experiment in a line: Activity at Wistar rat serum GnT-V assessed per mg of protein after 4 hrs by radio HPLC analysis.
For assay [5] the target is unchanged. The experiment in a line: Activity at Wistar rat brain GnT-V assessed per mg of protein after 4 hrs by radio HPLC analysis.
For assay [6] the target is unchanged. As to the kind of experiment: Activity at Wistar rat liver GnT-V assessed per mg of protein after 4 hrs by radio HPLC analysis.
For assay [7] the target is unchanged. As to the kind of experiment: Activity at Wistar rat kidney GnT-V assessed per mg of protein after 4 hrs by radio HPLC analysis.
Assay [8] shares this target. As to the kind of experiment: Activity at Wistar rat intestine GnT-V assessed per mg of protein after 4 hrs by radio HPLC analysis.
Assay [9] shares this target. As to the kind of experiment: Activity at Wistar rat stomach GnT-V assessed per mg of protein after 4 hrs by radio HPLC analysis.

With `CC(=O)N[C@H]1[C@H](O[C@@H]2[C@@H](OC[C@H]3O[C@@H](OCCc4ccc(I)cc4)[C@H](O)[C@@H](O)[C@@H]3O)O[C@H](CO)[C@@H](O)[C@@H]2O)O[C@H](CO)[C@@H](O)[C@@H]1O`, the Activity in [1] was found to be 244 pmol/h; in assay [2], 31 pmol/h; in [3] it was 179 pmol/h; in assay [4], 1280 pmol/h; in assay [5] it was 261 pmol/h; in [6], 48 pmol/h. The Activity in [7] was determined as 671 pmol/h; in assay [8], 774 pmol/h; in assay [9] it was 116 pmol/h.
